From PubChem BioAssay AID1996
≈ marks a conversion by molar mass, not a printed value.

details: buffer; pH 7.4; 200.0 µM

SMILES	solubility kinetic [µg/mL]
Cc1cc(S(=O)(=O)NCc2ccc(N3CCN(C)CC3)cc2)c(C)s1	15.8 (≈ 41.6 µM)
Cc1ccccc1C(=O)NCCCNC(=O)c1cnccn1	40.1 (≈ 134 µM)
COc1cc(C(=O)Nc2ccc(Nc3ccccc3)cc2)cc(OC)c1OC	4.4 (≈ 11.6 µM)
O=C(COC(=O)C1CCC1)NC(=O)c1ccccc1	> 39.2
COc1cccc(C(=O)N2CCn3c2nc2ccccc23)c1	> 44
CCSc1nc2sc3c(c2c(=O)[nH]1)CC(C)(C)OC3	3.1 (≈ 10.5 µM)
CN1CCN(C(=S)NC(=O)/C=C/c2cccs2)CC1	41.9 (≈ 142 µM)
O=S(=O)(c1ccc2ccccc2c1)N1CCOCC1	20.2 (≈ 72.8 µM)
Cc1ccc(C2(C)NC(=O)N(CC(=O)N3CC(=O)Nc4ccccc43)C2=O)cc1 (stereo not given)	0.4 (≈ 1.02 µM)
COc1ccc(C(=O)OCC(=O)NC2CCCC2)c(OC)c1	44.8 (≈ 146 µM)
O=C(Nc1ccccc1)Nc1ccc(NC(=O)c2ccccc2O)cc1	< 0.2
COc1ccccc1CC(=O)NC1CC1	29.6 (≈ 144 µM)
CN(CCc1ccccn1)C(=S)Nc1ccc(Cl)cc1Cl	46.2 (≈ 136 µM)
O=C(Nc1nc2c(F)c(F)c(F)cc2s1)c1ccco1	< 0.3
Nc1cccc(/C=C/C(=O)O)c1	> 24.5
CCOc1ccccc1NC(=O)C1COc2ccccc2O1 (stereo not given)	< 0.6
Cc1ccccc1NC(=S)NCc1ccc(F)cc1	> 41.2
CN1CCC(O)(c2cccs2)C(C(=O)c2cccs2)C1 (stereo not given)	42.1 (≈ 137 µM)
N/C(CS(=O)(=O)c1ccccn1)=N\OC(=O)c1ccccc1Cl	46.5 (≈ 131 µM)
c1ccc(CNc2nc(-c3cccnc3)nc3ccccc23)cc1	13.6 (≈ 43.5 µM)
O=C(CCl)Nc1cccc(Oc2cnccn2)c1	39.4 (≈ 149 µM)
O=C(Nc1ccc(Cl)c(Cl)c1)c1ccc2c(c1)OCO2	< 0.7
O=C(Nc1ccncc1)c1ccc2ccccc2c1	16.5 (≈ 66.5 µM)
CC(=O)Nc1ccc(NC(=O)COC(=O)[C@@H]2CCCN2C(=O)c2cccs2)cc1	> 62.3

SMILES	solubility kinetic [µg/mL]
CC1=Nc2cc(C(=O)O)ccc2Sc2c(C)ccc(C)c21	42.1 (≈ 142 µM)
NCC1(CC(=O)O)CCCCC1	> 25.7
CCc1nc2sc(C(C)=O)c(N)c2c2c1CCCC2	1.1 (≈ 4.01 µM)
CN(C)S(=O)(=O)c1cc(NC(=O)COC(=O)c2nc(Cl)ccc2Cl)ccc1Cl	52.7 (≈ 113 µM)
Cc1ccc(C(=O)NCCCNC(=O)c2ccco2)cc1	> 42.9
O=C(COC(=O)c1ccc(Cl)c(Cl)c1)NC1CCCC1	2 (≈ 6.33 µM)
Cc1cccc(Cc2cnc(NC(=O)C3=NCCN3)s2)c1	7 (≈ 23.3 µM)
CCCCc1ccc(NC(=O)NCc2cccnc2)cc1	21.1 (≈ 74.5 µM)
NC(=O)CN(Cc1ccccc1)S(=O)(=O)c1ccc2c(c1)OCCO2	> 54.4
Cc1cc(C)cc(OCC(=O)Nc2cnn(CCCC(=O)O)c2)c1	> 49.7
O=C(NCc1cccnc1)NC(=O)c1ccc(Cl)cc1	3.8 (≈ 13.1 µM)
O=c1[nH]c(=S)n(-c2ccccc2)c(O)c1C=NCCN1CCNCC1	> 53.9
CCCCN(CCCC)c1ncnc2nc[nH]c12	29.8 (≈ 120 µM)
O=C(Nc1ccc(Cl)cc1)N1CCOCC1	> 36.1
COc1ccc(CCNC(=O)c2ccc3nc[nH]c3c2)cc1	> 44.3
COc1ccc(NC(=O)CN(c2c(C)cccc2C)S(C)(=O)=O)cc1	48.1 (≈ 133 µM)
COc1ccc(S(=O)(=O)NCCCN2CCCC2=O)c(OC)c1	> 51.4
CC(=O)Nc1ccc(S(=O)(=O)NCCc2c[nH]c3ccc(C)cc23)cc1	33.8 (≈ 91 µM)
COc1cccc(CNCCc2ccc3c(c2)OCO3)c1OC.O=C(O)C(=O)O	> 60.8
O=S(=O)(NCc1ccc(Cl)cc1)c1cccc2cccnc12	43.2 (≈ 130 µM)
COc1cc(S(=O)(=O)N2CCN(C(=O)C3CC3)CC2)ccc1NC(C)=O	> 57.2
ClC1(Cl)CC1CSc1nc2ccccc2[nH]1 (stereo not given)	39.8 (≈ 146 µM)
O=C(Cn1c(=O)oc2ccccc21)Nc1ccc(F)c(F)c1	7.9 (≈ 26 µM)
COc1c(-c2ccc([N+](=O)[O-])cc2[N+](=O)[O-])c(=O)n(C)c(=O)n1C	> 50.4

SMILES	solubility kinetic [µg/mL]
Cn1cccc1/C=C1/C(=O)NC(=O)N(C(C)(C)C)C1=O	37.1 (≈ 135 µM)
COc1ccc(C(=O)Nc2cccc(S(=O)(=O)N3CCCC3)c2)cc1S(=O)(=O)N1CCOCC1	5.3 (≈ 10.4 µM)
O=C(COC(=O)c1ccc(S(=O)(=O)N2CCCCC2)cc1)NCc1ccccc1	3.6 (≈ 8.64 µM)
O=C(Nc1ccccc1C(=O)N1CCCCCC1)c1ccccc1	> 48.4
COC(=O)CC(CP(=O)([O-])CN(C)C=O)C(=O)OC (stereo not given)	27.9
CC(=O)C1=C(C)OC(N)=C(C#N)C1c1cc([N+](=O)[O-])ccc1Cl (stereo not given)	41.9 (≈ 126 µM)
COc1ccc(NC(=O)C2C3C=CC(O3)C2C(=O)O)cc1 (stereo not given)	> 43.4
Cc1nn(C)c(C)c1NC(=O)/C(C#N)=C\N(C)C	> 37.1
NS(=O)(=O)c1cnccc1Nc1cccc(Br)c1	36.3 (≈ 111 µM)
Cc1cc(C)cc(Nc2ncnc3nc[nH]c23)c1	7.7 (≈ 32.2 µM)
COc1ccc(C2SCC(=O)N2c2ccc(OC)cc2)cc1 (stereo not given)	45.7 (≈ 145 µM)
COc1ccc(N2C(=O)CC(C3CCCO3)C2=O)cc1 (stereo not given)	> 41.3
CNC(=S)N1CCN(c2nc(-c3ccc(F)cc3)cs2)CC1	2.5 (≈ 7.43 µM)
CCN(CC)C(=O)c1sc2nc(-c3ccccc3)ccc2c1N	19.8 (≈ 60.8 µM)
CC(=O)NC1C(=O)N=C(SCC(=O)Nc2c(C)cccc2C)NC1=O (stereo not given)	> 54.4
CN(Cc1ccccc1)C(=O)CN(C)S(=O)(=O)c1ccc(F)cc1	> 52.6
Cc1nc([N+](=O)[O-])cn1Cc1cccc2ccccc12	2.5 (≈ 9.35 µM)
Fc1ccc(OCCOCCN2CCCC2)cc1	28 (≈ 111 µM)
O=C(CCNC(=O)c1ccccc1)OCC(=O)c1ccccc1	> 46.7
Cc1cccnc1NC(=O)c1ccc(COc2ccccc2)o1	> 46.3
Cc1cccc2cc3c(nc12)-c1ccccc1C3=O	< 0.5
COc1ccc(CCNC(=O)c2c(C)nc3ccccn23)cc1	43 (≈ 139 µM)
CC1Oc2ccccc2N(CC(=O)NC2CC2)C1=O (stereo not given)	> 39
CCS(=O)(=O)c1nc2ccccc2n1Cc1ccccn1	> 45.2

SMILES	solubility kinetic [µg/mL]
O=C(NC1CCCCC1)[C@@H]1CSC2c3ccccc3C(=O)N21 (stereo not given in full)	47 (≈ 149 µM)
CC(C)CC(=O)Nc1ccc(S(=O)(=O)N2CCCC2)cc1	> 46.6
CCC(NC(=O)c1ccccc1NC(=O)C(C)(C)C)C(=O)N1CC(C)OC(C)C1 (stereo not given)	> 60.5
NC(=O)c1ccc(NC(=O)COC(=O)c2ccc(Cl)nc2)cc1	> 50.1
CC(=O)Nc1ccc2c(c1)CCCC2	> 28.4
CSc1nsc(SCC(=O)NCc2ccc(C)cc2)n1	11.8 (≈ 36.3 µM)
Nc1nc(F)cc(N2CCCCCC2)n1	> 31.5
COc1cccc(NC(=O)N2CCCC2C(=O)NCc2ccco2)c1 (stereo not given)	47.6 (≈ 139 µM)
COc1cccc(CNC(=O)Cn2nc(C)c([N+](=O)[O-])c2C)c1	> 47.7
N#Cc1ccc(S(=O)(=O)Nc2ccccc2N2CCOCC2)cc1	> 51.5
O=C(NC(=S)NC12CC3CC(CC(C3)C1)C2)c1ccc(F)cc1	2.3 (≈ 6.92 µM)
CC1CCN(C(=O)COC(=O)c2cccs2)CC1	> 40.1
CC1(c2ccccc2)CC(C)(C)N(C(N)=O)c2ccccc21 (stereo not given)	40.9 (≈ 139 µM)
Cc1cccc(CCNCc2cc3ccc(C)cc3[nH]c2=O)c1	45.4 (≈ 148 µM)
COc1ccccc1NC(=O)c1ccc2c(c1)CCN2S(C)(=O)=O	> 52
COc1ccc(C2=NCC(=S)Nc3ccc(Cl)cc32)cc1OC	< 0.4
CC12CCC(C(=O)NCc3ccc(F)cc3)(OC1=O)C2(C)C (stereo not given)	44.2 (≈ 145 µM)
O=C(CCc1nc(-c2ccc(F)cc2)no1)Nc1cccc(C(=O)NC2CC2)c1	9.7 (≈ 24.6 µM)
CC(=O)Nc1ccc(NC(=O)C2CC(=O)N(C(C)C)C2)cc1 (stereo not given)	43.4 (≈ 143 µM)
O=C1c2ccccc2C(Nc2ccccc2)N1Cc1ccc2c(c1)OCO2 (stereo not given)	0.9 (≈ 2.51 µM)
Cc1cc(C)cc(NC2=NCCCS2)c1	32.1 (≈ 146 µM)
Cc1ccccc1NC(=O)CSc1nnc(-c2ccccn2)o1	> 49
COc1ccccc1NS(=O)(=O)c1cc(NC(=O)C2CCCO2)ccc1C (stereo not given)	> 58.6
Cc1ccc(NC(=O)Nc2cnc3ccccc3c2)cc1	0.3 (≈ 1.08 µM)

SMILES	solubility kinetic [µg/mL]
COc1ccc([N+](=O)[O-])cc1NS(=O)(=O)c1cccc(C(=O)NCCCN2CCCC2=O)c1	> 71.5
N#Cc1ccc(Oc2ncccn2)cc1	> 29.6
Cc1ccc(N2CCN(C(=O)c3cccs3)CC2)cc1C	43.8 (≈ 146 µM)
CC(OC(=O)CCc1c[nH]c2ccccc12)C(=O)c1ccccc1 (stereo not given)	12.7 (≈ 39.5 µM)
CC(C)(C)c1cc(C(=O)N2CCc3ccccc3C2)ccn1	> 44.2
O=C(NCCCCc1ccccc1)Nc1ccc(F)cc1F	0.3 (≈ 0.986 µM)
FC(c1nc2ccccc2[nH]1)C(F)(F)F (stereo not given)	> 32.7
CCNc1nc(NCC)nc(NC(N)=S)n1	9 (≈ 37.3 µM)
COc1nc(SCC(=O)Nc2ccccc2Cl)nc(N(C)C)n1	20.4 (≈ 57.7 µM)
CC(C(=O)Nc1ccccc1)C(=O)Nc1ccccc1	21.8 (≈ 81.2 µM)
O=Cc1c(C(=O)O)n(Cc2ccc(F)cc2Cl)c2ccccc12	> 49.8
Cc1ccc(N2CC(C(=O)Nc3ccc4c(c3)OCO4)CC2=O)cc1C (stereo not given)	1.8 (≈ 5.11 µM)
Cc1ccc(C(=O)NCCCNC(=O)c2ccco2)cc1C	43.4 (≈ 144 µM)
COc1cccc(CSc2nccn2C)c1	> 35.1
O=[N+]([O-])c1cccc(-c2ccc(CN3CCCCC3)o2)c1	30.5 (≈ 107 µM)
CCCCCCCCCCCCCCCC(=O)OC(CC(=O)O)C[N+](C)(C)C.[Cl-] (stereo not given)	4.5
O=C1NC(=S)N/C1=C\c1cccnc1	> 30.8
CCOC(=O)CN1C(=O)c2ccccc2Sc2ncccc21	> 47.2
Fc1ccc(-c2nc(-c3cnccn3)no2)c(Cl)c1	3.5 (≈ 12.7 µM)
CSc1cccc(NC(=S)NC(=O)CCc2ccccc2)c1	0.7 (≈ 2.12 µM)
Cc1cnc(C(=O)OCc2ccc(Br)cc2)cn1	19 (≈ 61.9 µM)
O=C(Nc1ccc(F)cc1F)N1CCCN(c2ccc(C(F)(F)F)cn2)CC1	7.3 (≈ 18.2 µM)
CCCNC(=O)c1cc2cc([N+](=O)[O-])ccc2s1	1.4 (≈ 5.3 µM)
O=C(Nc1ccc(S(=O)(=O)N2CCCCC2)cc1)C1CCCO1 (stereo not given)	39.9 (≈ 118 µM)
